According to ChEMBL document CHEMBL4507303, “Data for DCP probe TP-004” (2021):

Columns and labels:
[1] = target: Serine/threonine-protein kinase Nek7 (Homo sapiens) (UniProt Q8TDX7); details: Compound concentration 1000.0 nM
[2] = target: Dual specificity protein kinase CLK3 (Homo sapiens) (UniProt P49761); details: Compound concentration 1000.0 nM
[3] = target: Dual specificity tyrosine-phosphorylation-regulated kinase 1B (Homo sapiens) (UniProt Q9Y463); details: Compound concentration 1000.0 nM
[4] = target: Fibroblast growth factor receptor 2 (Homo sapiens) (UniProt P21802); details: Compound concentration 1000.0 nM
[5] = target: Aurora kinase A (Homo sapiens) (UniProt O14965); details: Compound concentration 1000.0 nM
Chain of Aurora kinase A (Homo sapiens) (O14965 whole entry): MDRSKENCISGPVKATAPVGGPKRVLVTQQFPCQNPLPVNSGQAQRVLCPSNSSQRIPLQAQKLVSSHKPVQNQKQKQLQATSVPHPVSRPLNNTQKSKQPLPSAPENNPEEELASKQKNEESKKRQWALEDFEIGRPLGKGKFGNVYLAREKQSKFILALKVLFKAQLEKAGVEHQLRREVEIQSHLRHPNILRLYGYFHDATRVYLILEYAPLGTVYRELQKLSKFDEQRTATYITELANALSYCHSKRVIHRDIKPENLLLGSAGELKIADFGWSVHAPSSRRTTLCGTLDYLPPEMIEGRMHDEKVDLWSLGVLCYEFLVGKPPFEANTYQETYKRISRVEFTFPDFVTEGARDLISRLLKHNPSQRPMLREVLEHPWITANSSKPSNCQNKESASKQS

[6] = target: Serine/threonine-protein kinase 32B (Homo sapiens) (UniProt Q9NY57); details: Compound concentration 1000.0 nM
Chain of Serine/threonine-protein kinase 32B (Homo sapiens) (Q9NY57 whole entry, canonical isoform): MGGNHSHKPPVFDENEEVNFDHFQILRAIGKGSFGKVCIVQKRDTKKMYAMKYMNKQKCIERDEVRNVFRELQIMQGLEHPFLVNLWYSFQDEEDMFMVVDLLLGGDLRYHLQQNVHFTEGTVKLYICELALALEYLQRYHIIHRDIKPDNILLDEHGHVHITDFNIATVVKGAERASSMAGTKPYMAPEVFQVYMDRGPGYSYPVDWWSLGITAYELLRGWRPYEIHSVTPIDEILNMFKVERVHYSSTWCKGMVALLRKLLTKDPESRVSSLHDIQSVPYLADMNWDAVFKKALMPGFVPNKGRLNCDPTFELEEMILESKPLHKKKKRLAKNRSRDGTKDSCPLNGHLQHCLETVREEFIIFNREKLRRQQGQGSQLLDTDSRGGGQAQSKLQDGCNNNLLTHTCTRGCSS

[7] = target: Phosphatidylinositol 4,5-bisphosphate 3-kinase catalytic subunit alpha isoform (Homo sapiens) (UniProt P42336); details: Compound concentration 1000.0 nM
[8] = target: Ribosomal protein S6 kinase alpha-5 (Homo sapiens) (UniProt O75582); details: Compound concentration 1000.0 nM
[9] = target: Tyrosine-protein kinase Mer (Homo sapiens) (UniProt Q12866); details: Compound concentration 1000.0 nM
[10] = target: Mitogen-activated protein kinase 15 (Homo sapiens) (UniProt Q8TD08); details: Compound concentration 1000.0 nM
[11] = target: Tyrosine-protein kinase JAK1 (Homo sapiens) (UniProt P23458); details: Compound concentration 1000.0 nM
[12] = system: Phosphatidylinositol 4,5-bisphosphate 3-kinase catalytic subunit alpha isoform (Homo sapiens), P42336 [M1043I]; details: Compound concentration 1000.0 nM
[13] = system: Leucine-rich repeat serine/threonine-protein kinase 2 (Homo sapiens), Q5S007 [G2019S]; details: Compound concentration 1000.0 nM
[14] = system: Epidermal growth factor receptor (Homo sapiens), P00533 [UNDEFINED MUTATION]; details: Compound concentration 1000.0 nM
[15] = target: Tyrosine-protein kinase ITK/TSK (Homo sapiens) (UniProt Q08881); details: Compound concentration 1000.0 nM
Chain of Tyrosine-protein kinase ITK/TSK (Homo sapiens) (Q08881 whole entry): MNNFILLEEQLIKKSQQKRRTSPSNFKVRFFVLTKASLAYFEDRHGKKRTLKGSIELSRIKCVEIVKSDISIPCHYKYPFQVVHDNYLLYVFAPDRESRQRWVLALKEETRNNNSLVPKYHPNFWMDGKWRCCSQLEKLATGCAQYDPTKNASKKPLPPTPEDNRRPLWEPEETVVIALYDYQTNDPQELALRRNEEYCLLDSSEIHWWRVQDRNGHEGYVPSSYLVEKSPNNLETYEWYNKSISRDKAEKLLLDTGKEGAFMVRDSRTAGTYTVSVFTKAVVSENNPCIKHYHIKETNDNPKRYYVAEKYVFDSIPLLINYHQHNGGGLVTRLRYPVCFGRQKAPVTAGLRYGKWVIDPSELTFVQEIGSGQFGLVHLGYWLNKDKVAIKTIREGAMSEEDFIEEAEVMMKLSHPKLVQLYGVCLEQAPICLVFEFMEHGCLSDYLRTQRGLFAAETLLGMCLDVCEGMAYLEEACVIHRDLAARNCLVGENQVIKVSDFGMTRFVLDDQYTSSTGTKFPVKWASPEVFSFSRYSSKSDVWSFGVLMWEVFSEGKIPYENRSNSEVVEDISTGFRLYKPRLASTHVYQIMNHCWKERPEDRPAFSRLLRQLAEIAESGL

[16] = target: Death-associated protein kinase 1 (Homo sapiens) (UniProt P53355); details: Compound concentration 1000.0 nM
[17] = target: Mitogen-activated protein kinase 8 (Homo sapiens) (UniProt P45983); details: Compound concentration 1000.0 nM
Chain of Mitogen-activated protein kinase 8 (Homo sapiens) (P45983 whole entry, canonical isoform): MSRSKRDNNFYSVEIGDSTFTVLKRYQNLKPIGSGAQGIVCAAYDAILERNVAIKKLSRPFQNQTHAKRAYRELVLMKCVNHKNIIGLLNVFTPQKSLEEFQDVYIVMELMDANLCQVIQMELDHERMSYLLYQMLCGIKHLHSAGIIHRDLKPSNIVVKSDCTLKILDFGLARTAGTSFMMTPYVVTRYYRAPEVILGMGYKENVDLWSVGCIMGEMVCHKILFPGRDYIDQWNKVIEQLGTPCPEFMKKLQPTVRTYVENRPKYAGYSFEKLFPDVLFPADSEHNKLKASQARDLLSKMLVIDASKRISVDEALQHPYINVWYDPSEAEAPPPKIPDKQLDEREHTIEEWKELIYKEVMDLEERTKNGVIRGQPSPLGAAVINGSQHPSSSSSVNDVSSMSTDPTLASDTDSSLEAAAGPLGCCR

[18] = target: Phosphorylase b kinase gamma catalytic chain, skeletal muscle/heart isoform (Homo sapiens) (UniProt Q16816); details: Compound concentration 1000.0 nM
[19] = target: Fibroblast growth factor receptor 1 (Homo sapiens) (UniProt P11362); details: Compound concentration 1000.0 nM
[20] = target: D(2) dopamine receptor (Homo sapiens) (UniProt P14416); details: Compound concentration 10.0 uM
[21] = target: Serine/threonine-protein kinase Sgk2 (Homo sapiens) (UniProt Q9HBY8); details: Compound concentration 1000.0 nM
[22] = target: Serine/threonine-protein kinase pim-2 (Homo sapiens) (UniProt Q9P1W9); details: Compound concentration 1000.0 nM
[23] = target: Serine/threonine-protein kinase 3 (Homo sapiens) (UniProt Q13188); details: Compound concentration 1000.0 nM
[24] = target: Serine/threonine-protein kinase DCLK1 (Homo sapiens) (UniProt O15075); details: Compound concentration 1000.0 nM
[25] = target: Serine/threonine-protein kinase DCLK3 (Homo sapiens) (UniProt Q9C098); details: Compound concentration 1000.0 nM
[26] = target: AP2-associated protein kinase 1 (Homo sapiens) (UniProt Q2M2I8); details: Compound concentration 1000.0 nM
[27] = target: Mitogen-activated protein kinase kinase kinase 15 (Homo sapiens) (UniProt Q6ZN16); details: Compound concentration 1000.0 nM
[28] = target: Dual specificity tyrosine-phosphorylation-regulated kinase 2 (Homo sapiens) (UniProt Q92630); details: Compound concentration 1000.0 nM
[29] = target: Serine/threonine-protein kinase PAK 2 (Homo sapiens) (UniProt Q13177); details: Compound concentration 1000.0 nM
[30] = target: Ephrin type-A receptor 4 (Homo sapiens) (UniProt P54764); details: Compound concentration 1000.0 nM
[31] = target: Ephrin type-A receptor 3 (Homo sapiens) (UniProt P29320); details: Compound concentration 1000.0 nM
Chain of Ephrin type-A receptor 3 (Homo sapiens) (P29320 whole entry): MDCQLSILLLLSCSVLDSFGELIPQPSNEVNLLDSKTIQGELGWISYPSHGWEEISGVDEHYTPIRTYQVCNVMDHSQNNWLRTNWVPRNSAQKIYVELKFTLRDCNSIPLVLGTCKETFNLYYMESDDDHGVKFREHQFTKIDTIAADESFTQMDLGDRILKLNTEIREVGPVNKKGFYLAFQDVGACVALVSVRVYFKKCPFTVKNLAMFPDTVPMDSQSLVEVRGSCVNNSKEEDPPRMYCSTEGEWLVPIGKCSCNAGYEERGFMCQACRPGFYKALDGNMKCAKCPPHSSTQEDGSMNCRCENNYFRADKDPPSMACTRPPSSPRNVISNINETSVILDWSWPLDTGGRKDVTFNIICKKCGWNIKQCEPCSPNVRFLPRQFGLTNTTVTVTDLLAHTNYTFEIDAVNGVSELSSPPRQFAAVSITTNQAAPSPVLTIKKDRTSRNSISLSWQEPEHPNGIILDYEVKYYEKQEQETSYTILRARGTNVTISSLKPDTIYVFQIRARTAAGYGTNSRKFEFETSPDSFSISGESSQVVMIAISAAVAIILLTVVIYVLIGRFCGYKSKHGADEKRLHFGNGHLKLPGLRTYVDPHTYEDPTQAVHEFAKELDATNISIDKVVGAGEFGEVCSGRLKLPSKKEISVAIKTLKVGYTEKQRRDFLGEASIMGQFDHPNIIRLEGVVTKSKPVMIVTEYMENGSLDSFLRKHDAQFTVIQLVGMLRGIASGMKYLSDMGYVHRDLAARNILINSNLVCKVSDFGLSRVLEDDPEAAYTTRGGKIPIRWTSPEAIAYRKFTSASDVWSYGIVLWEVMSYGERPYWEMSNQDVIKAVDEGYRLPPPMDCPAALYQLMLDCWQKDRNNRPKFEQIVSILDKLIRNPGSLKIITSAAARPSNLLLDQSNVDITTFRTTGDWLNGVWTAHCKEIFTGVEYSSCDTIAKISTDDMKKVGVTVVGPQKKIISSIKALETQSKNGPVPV

[32] = target: Tyrosine-protein kinase ABL1 (Homo sapiens) (UniProt P00519); details: Compound concentration 1000.0 nM
Chain of Tyrosine-protein kinase ABL1 (Homo sapiens) (P00519 whole entry): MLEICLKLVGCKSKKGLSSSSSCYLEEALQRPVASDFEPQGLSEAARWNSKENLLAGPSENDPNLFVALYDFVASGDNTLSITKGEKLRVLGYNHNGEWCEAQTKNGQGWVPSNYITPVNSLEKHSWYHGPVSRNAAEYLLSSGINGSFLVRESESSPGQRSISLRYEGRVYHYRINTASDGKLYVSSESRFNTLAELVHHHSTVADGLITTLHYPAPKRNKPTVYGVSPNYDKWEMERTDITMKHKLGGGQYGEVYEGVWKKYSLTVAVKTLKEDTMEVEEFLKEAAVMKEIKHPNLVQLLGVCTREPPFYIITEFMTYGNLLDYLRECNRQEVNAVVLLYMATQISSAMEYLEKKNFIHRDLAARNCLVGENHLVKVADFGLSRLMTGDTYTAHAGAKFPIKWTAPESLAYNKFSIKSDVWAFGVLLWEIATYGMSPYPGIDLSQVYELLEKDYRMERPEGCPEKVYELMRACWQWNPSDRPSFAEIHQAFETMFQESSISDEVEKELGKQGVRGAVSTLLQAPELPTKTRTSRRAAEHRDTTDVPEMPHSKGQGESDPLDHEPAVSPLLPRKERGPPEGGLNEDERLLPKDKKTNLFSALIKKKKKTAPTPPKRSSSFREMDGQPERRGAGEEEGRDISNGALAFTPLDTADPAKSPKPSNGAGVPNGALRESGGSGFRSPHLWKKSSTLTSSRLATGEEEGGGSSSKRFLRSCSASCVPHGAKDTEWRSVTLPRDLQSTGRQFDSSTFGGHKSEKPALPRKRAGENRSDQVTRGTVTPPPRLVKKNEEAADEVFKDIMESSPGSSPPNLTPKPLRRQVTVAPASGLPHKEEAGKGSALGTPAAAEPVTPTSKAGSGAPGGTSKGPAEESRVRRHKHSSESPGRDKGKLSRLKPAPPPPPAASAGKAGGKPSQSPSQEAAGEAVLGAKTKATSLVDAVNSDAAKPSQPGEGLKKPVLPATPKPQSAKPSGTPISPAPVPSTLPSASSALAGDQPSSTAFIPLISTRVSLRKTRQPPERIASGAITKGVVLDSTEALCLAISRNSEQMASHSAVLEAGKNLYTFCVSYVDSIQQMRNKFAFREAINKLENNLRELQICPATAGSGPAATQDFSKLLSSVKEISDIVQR

[33] = target: Protein-tyrosine kinase 6 (Homo sapiens) (UniProt Q13882); details: Compound concentration 1000.0 nM
[34] = target: Serine/threonine-protein kinase NLK (Homo sapiens) (UniProt Q9UBE8); details: Compound concentration 1000.0 nM
[35] = target: Myosin-IIIb (Homo sapiens) (UniProt Q8WXR4); details: Compound concentration 1000.0 nM
[36] = target: Bone morphogenetic protein receptor type-1A (Homo sapiens) (UniProt P36894); details: Compound concentration 1000.0 nM
[37] = target: Serine/threonine-protein kinase PAK 5 (Homo sapiens) (UniProt Q9P286); details: Compound concentration 1000.0 nM
[38] = target: SRSF protein kinase 3 (Homo sapiens) (UniProt Q9UPE1); details: Compound concentration 1000.0 nM
[39] = target: Macrophage-stimulating protein receptor (Homo sapiens) (UniProt Q04912); details: Compound concentration 1000.0 nM
[40] = target: Phosphatidylinositol 4-phosphate 5-kinase type-1 alpha (Homo sapiens) (UniProt Q99755); details: Compound concentration 1000.0 nM
[41] = target: Tyrosine-protein kinase ABL1 (Homo sapiens) (UniProt P00519); details: Compound concentration 1000.0 nM; remark: listed apart in the source
[42] = target: BDNF/NT-3 growth factors receptor (Homo sapiens) (UniProt Q16620); details: Compound concentration 1000.0 nM
[43] = target: Bone morphogenetic protein receptor type-2 (Homo sapiens) (UniProt Q13873); details: Compound concentration 1000.0 nM
[44] = target: Misshapen-like kinase 1 (Homo sapiens) (UniProt Q8N4C8); details: Compound concentration 1000.0 nM
[45] = target: 5-hydroxytryptamine receptor 2A (Homo sapiens) (UniProt P28223); details: Compound concentration 10.0 uM

Chain of Dual specificity protein kinase CLK3 (Homo sapiens) (P49761 whole entry, looked up): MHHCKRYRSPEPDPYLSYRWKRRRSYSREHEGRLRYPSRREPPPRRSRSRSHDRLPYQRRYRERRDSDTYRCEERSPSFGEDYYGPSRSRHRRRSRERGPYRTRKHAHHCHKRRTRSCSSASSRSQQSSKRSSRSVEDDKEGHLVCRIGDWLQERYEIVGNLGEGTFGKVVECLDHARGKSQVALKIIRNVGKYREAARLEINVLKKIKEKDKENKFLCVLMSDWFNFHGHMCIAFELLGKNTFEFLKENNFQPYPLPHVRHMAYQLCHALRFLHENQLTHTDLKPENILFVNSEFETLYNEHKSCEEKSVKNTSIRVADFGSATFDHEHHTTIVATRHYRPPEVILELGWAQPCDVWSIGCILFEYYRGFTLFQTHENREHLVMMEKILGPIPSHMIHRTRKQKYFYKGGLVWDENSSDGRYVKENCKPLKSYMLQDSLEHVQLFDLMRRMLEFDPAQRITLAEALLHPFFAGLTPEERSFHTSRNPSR
Chain of Serine/threonine-protein kinase Nek7 (Homo sapiens) (Q8TDX7 whole entry, looked up): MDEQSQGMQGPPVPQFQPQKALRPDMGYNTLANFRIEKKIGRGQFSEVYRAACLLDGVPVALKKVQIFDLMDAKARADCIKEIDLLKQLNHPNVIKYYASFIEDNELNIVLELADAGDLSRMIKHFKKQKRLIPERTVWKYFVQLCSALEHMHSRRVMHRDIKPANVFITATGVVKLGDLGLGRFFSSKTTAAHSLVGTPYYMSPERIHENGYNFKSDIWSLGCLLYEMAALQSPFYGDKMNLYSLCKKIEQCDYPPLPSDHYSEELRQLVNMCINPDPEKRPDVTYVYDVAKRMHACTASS

Cc1nc(N2CC[C@@H](O)C2)ncc1-c1cc(C(F)(F)F)cc2[nH]ncc12 [TP-004]
inactive: residual activity [1] 97% | residual activity [2] 76% | residual activity [3] 96% | residual activity [4] 100% | residual activity [5] 87% | residual activity [6] 100% | residual activity [7] 100% | residual activity [8] 81% | residual activity [9] 100% | residual activity [10] 86% | residual activity [11] 100% | residual activity [12] 100% | residual activity [13] 67% | residual activity [14] 90% | residual activity [15] 64% | residual activity [16] 89% | residual activity [17] 100% | residual activity [18] 81% | residual activity [19] 90% | inhibition [20] 12.6% | residual activity [21] 88% | residual activity [22] 89% | residual activity [23] 80% | residual activity [24] 100% | residual activity [25] 96% | residual activity [26] 100% | residual activity [27] 100% | residual activity [28] 79% | residual activity [29] 100% | residual activity [30] 100% | residual activity [31] 94% | residual activity [32] 83% | residual activity [33] 89% | residual activity [34] 100% | residual activity [35] 93% | residual activity [36] 100% | residual activity [37] 99% | residual activity [38] 84% | residual activity [39] 100% | residual activity [40] 86% | residual activity [41] 61% | residual activity [42] 53% | residual activity [43] 81% | residual activity [44] 61% | inhibition [45] -5.62%
